Test results as given in PubChem BioAssay (NCI).
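The compound was tested at five concentrations on cells cultured in 96-well plates, with a 48-hour exposure period. GI50 is the concentration that inhibits growth by half. TGI: total growth inhibition.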

Key:
Experiment in all cases: NCI anticancer screen, dose series, 48 h
SF-295 CNS = system: SF-295 CNS
SK-MEL-28 melanoma = system: SK-MEL-28 melanoma
NCI-H226 lung = system: NCI-H226 lung
U251 CNS = system: U251 CNS
IGROV1 ovarian = system: IGROV1 ovarian
HCT-116 colon = system: HCT-116 colon
SNB-19 CNS = system: SNB-19 CNS
ACHN renal = system: ACHN renal
MOLT-4 leukemia = system: MOLT-4 leukemia
SK-MEL-2 melanoma = system: SK-MEL-2 melanoma

O=[N+]([O-])c1ccc2[nH]cc(-c3c4ccsc4cc4[nH]c5ccc([N+](=O)[O-])cc5c34)c2c1
GI50 (SF-295 CNS): 0.629 µM
TGI (SF-295 CNS): 3.09 µM
GI50 (SK-MEL-28 melanoma): 1.38 µM
TGI (SK-MEL-28 melanoma): 6.44 µM
GI50 (NCI-H226 lung): 0.967 µM
TGI (NCI-H226 lung): 3.95 µM
GI50 (U251 CNS): 1.1 µM
TGI (U251 CNS): 16.6 µM
GI50 (IGROV1 ovarian): 1.65 µM
TGI (IGROV1 ovarian): 8.52 µM
GI50 (HCT-116 colon): 0.865 µM
TGI (HCT-116 colon): 5.37 µM
GI50 (SNB-19 CNS): 1.32 µM
TGI (SNB-19 CNS): 9.13 µM
GI50 (ACHN renal): 1.52 µM
TGI (ACHN renal): 14.9 µM
GI50 (MOLT-4 leukemia): 1.27 µM
TGI (MOLT-4 leukemia): 5.5 µM
GI50 (SK-MEL-2 melanoma): 0.861 µM
TGI (SK-MEL-2 melanoma): 4.18 µM

O=C(O)C1CCc2ccc3ccccc3c2C1c1cccc2ccccc12 (stereo not given)
TGI (SF-295 CNS): 69.4 µM
TGI (SK-MEL-28 melanoma): 39.5 µM
TGI (NCI-H226 lung): 60 µM
TGI (U251 CNS): 33.8 µM
TGI (IGROV1 ovarian): 63.3 µM
TGI (HCT-116 colon): 28.9 µM
TGI (SNB-19 CNS): 34.2 µM
TGI (ACHN renal): > 100 µM
TGI (MOLT-4 leukemia): 48.7 µM
TGI (SK-MEL-2 melanoma): 38.6 µM

CCOC(=O)C(C)(C)Oc1ccc2c(=O)cc(-c3ccc(Cl)cc3)oc2c1
TGI (SF-295 CNS): > 100 µM
TGI (SK-MEL-28 melanoma): > 100 µM
TGI (NCI-H226 lung): > 100 µM
TGI (U251 CNS): > 100 µM
TGI (IGROV1 ovarian): > 100 µM
TGI (HCT-116 colon): > 100 µM
TGI (SNB-19 CNS): > 100 µM
TGI (ACHN renal): > 100 µM
TGI (MOLT-4 leukemia): > 100 µM
TGI (SK-MEL-2 melanoma): > 100 µM

O=C(Nc1ccccc1C(F)(F)F)c1cccc(NC2=C(Cl)C(=O)N(Cc3ccccc3)C2=O)c1
GI50 (SF-295 CNS): > 19.9 µM
TGI (SF-295 CNS): > 45.5 µM
GI50 (SK-MEL-28 melanoma): > 90.2 µM
TGI (SK-MEL-28 melanoma): > 100 µM
GI50 (NCI-H226 lung): 15.4 µM
TGI (NCI-H226 lung): 52.9 µM
GI50 (U251 CNS): 6.68 µM
TGI (U251 CNS): 41.7 µM
GI50 (IGROV1 ovarian): 0.985 µM
TGI (IGROV1 ovarian): 18.8 µM
GI50 (HCT-116 colon): 14.9 µM
TGI (HCT-116 colon): > 55.1 µM
GI50 (SNB-19 CNS): 34 µM
TGI (SNB-19 CNS): > 100 µM
GI50 (ACHN renal): 5.39 µM
TGI (ACHN renal): 26.9 µM
GI50 (MOLT-4 leukemia): 4.29 µM
TGI (MOLT-4 leukemia): 30.8 µM
GI50 (SK-MEL-2 melanoma): 14.9 µM
TGI (SK-MEL-2 melanoma): 79 µM

Cc1ccc(C(=O)c2oc3ccc4c(C)cc(=O)oc4c3c2C)cc1
GI50 (SF-295 CNS): 2.19 µM
TGI (SF-295 CNS): 30.2 µM
GI50 (SK-MEL-28 melanoma): 6.37 µM
TGI (SK-MEL-28 melanoma): > 100 µM
GI50 (NCI-H226 lung): 11.7 µM
TGI (NCI-H226 lung): > 100 µM
GI50 (U251 CNS): 3.64 µM
TGI (U251 CNS): > 100 µM
GI50 (IGROV1 ovarian): 13.8 µM
TGI (IGROV1 ovarian): > 100 µM
GI50 (HCT-116 colon): 43.8 µM
TGI (HCT-116 colon): > 100 µM
GI50 (SNB-19 CNS): 5.98 µM
TGI (SNB-19 CNS): > 100 µM
GI50 (ACHN renal): 3.65 µM
TGI (ACHN renal): 94.3 µM
GI50 (MOLT-4 leukemia): 63.6 µM
TGI (MOLT-4 leukemia): > 100 µM
GI50 (SK-MEL-2 melanoma): 35 µM
TGI (SK-MEL-2 melanoma): > 100 µM

O=C(Oc1ccc(O)c2c(=O)n3c(cc12)[nH]c1ccccc13)c1ccccc1
GI50 (SF-295 CNS): 40.8 µM
TGI (SF-295 CNS): > 100 µM
GI50 (SK-MEL-28 melanoma): 24.9 µM
TGI (SK-MEL-28 melanoma): 76.4 µM
GI50 (NCI-H226 lung): 18.9 µM
TGI (NCI-H226 lung): 64.2 µM
GI50 (U251 CNS): 10.1 µM
TGI (U251 CNS): 27.4 µM
GI50 (IGROV1 ovarian): 10.6 µM
TGI (IGROV1 ovarian): 24.6 µM
GI50 (HCT-116 colon): 11.3 µM
TGI (HCT-116 colon): 23.5 µM
GI50 (SNB-19 CNS): 37.7 µM
TGI (SNB-19 CNS): > 100 µM
GI50 (ACHN renal): 7.55 µM
TGI (ACHN renal): 23.6 µM
GI50 (MOLT-4 leukemia): 16.4 µM
TGI (MOLT-4 leukemia): 62.6 µM
GI50 (SK-MEL-2 melanoma): 21 µM
TGI (SK-MEL-2 melanoma): > 100 µM

CCN(CC)c1ccc(N=Nc2ccc(-c3nc4cccnc4o3)cc2)cc1
TGI (SF-295 CNS): > 100 µM
TGI (SK-MEL-28 melanoma): > 100 µM
TGI (NCI-H226 lung): > 100 µM
TGI (U251 CNS): > 100 µM
TGI (IGROV1 ovarian): > 100 µM
TGI (HCT-116 colon): > 100 µM
TGI (SNB-19 CNS): > 100 µM
TGI (ACHN renal): > 100 µM
TGI (MOLT-4 leukemia): > 100 µM
TGI (SK-MEL-2 melanoma): > 100 µM

CCCC(=O)c1c(NOC2OC(COC(C)=O)C(OC(C)=O)C(OC(C)=O)C2OC(C)=O)nc(OC)n(C)c1=O (stereo not given)
TGI (SF-295 CNS): > 100 µM
TGI (SK-MEL-28 melanoma): > 100 µM
TGI (NCI-H226 lung): > 100 µM
TGI (U251 CNS): > 100 µM
TGI (IGROV1 ovarian): > 100 µM
TGI (HCT-116 colon): > 100 µM
TGI (SNB-19 CNS): > 100 µM
TGI (ACHN renal): > 100 µM
TGI (MOLT-4 leukemia): > 100 µM
TGI (SK-MEL-2 melanoma): > 100 µM

COc1ccc(-c2c(C3=NCCN3)nnn2-c2ccccc2)cc1
TGI (SF-295 CNS): > 100 µM
TGI (SK-MEL-28 melanoma): > 100 µM
TGI (NCI-H226 lung): > 100 µM
TGI (U251 CNS): > 100 µM
TGI (IGROV1 ovarian): > 100 µM
TGI (HCT-116 colon): > 100 µM
TGI (SNB-19 CNS): > 100 µM
TGI (ACHN renal): > 100 µM
TGI (MOLT-4 leukemia): > 100 µM
TGI (SK-MEL-2 melanoma): > 100 µM

C=CCc1cc2cccc(OC)c2oc1=O
TGI (SF-295 CNS): > 100 µM
TGI (SK-MEL-28 melanoma): > 100 µM
TGI (NCI-H226 lung): > 100 µM
TGI (U251 CNS): > 100 µM
TGI (IGROV1 ovarian): > 100 µM
TGI (HCT-116 colon): > 100 µM
TGI (SNB-19 CNS): > 100 µM
TGI (ACHN renal): > 100 µM
TGI (MOLT-4 leukemia): > 100 µM
TGI (SK-MEL-2 melanoma): > 100 µM

CC1=CSC2=NC(c3ccc(Cl)c(Cl)c3)=CC(c3ccc(Cl)cc3)N12 (stereo not given)
GI50 (SF-295 CNS): > 100 µM
TGI (SF-295 CNS): > 100 µM
GI50 (SK-MEL-28 melanoma): > 100 µM
TGI (SK-MEL-28 melanoma): > 100 µM
GI50 (NCI-H226 lung): > 100 µM
TGI (NCI-H226 lung): > 100 µM
GI50 (U251 CNS): > 100 µM
TGI (U251 CNS): > 100 µM
GI50 (IGROV1 ovarian): > 100 µM
TGI (IGROV1 ovarian): > 100 µM
GI50 (HCT-116 colon): > 100 µM
TGI (HCT-116 colon): > 100 µM
GI50 (SNB-19 CNS): > 100 µM
TGI (SNB-19 CNS): > 100 µM
GI50 (ACHN renal): > 100 µM
TGI (ACHN renal): > 100 µM
GI50 (MOLT-4 leukemia): > 100 µM
TGI (MOLT-4 leukemia): > 100 µM
GI50 (SK-MEL-2 melanoma): > 100 µM
TGI (SK-MEL-2 melanoma): > 100 µM

CCN(CC)CCC1CC/C(=C\c2ccc(OC)cc2)C1=O (stereo not given)
TGI (SF-295 CNS): > 100 µM
TGI (SK-MEL-28 melanoma): > 100 µM
TGI (NCI-H226 lung): > 100 µM
TGI (U251 CNS): > 100 µM
TGI (IGROV1 ovarian): > 100 µM
TGI (HCT-116 colon): > 100 µM
TGI (SNB-19 CNS): > 100 µM
TGI (ACHN renal): > 100 µM
TGI (MOLT-4 leukemia): > 100 µM
TGI (SK-MEL-2 melanoma): > 100 µM

CCCCCCC/C=C/[C@H]1O[C@]23C(=O)C[C@@]4(C[C@@H](OC5OC(CO)C(O)C(O)C5O)C[C@@H]4[C@H]2C=C1C)OC3=O (stereo not given in full)
GI50 (SF-295 CNS): 5.12 µM
TGI (SF-295 CNS): 12.7 µM
GI50 (SK-MEL-28 melanoma): 5.05 µM
TGI (SK-MEL-28 melanoma): 10.3 µM
GI50 (NCI-H226 lung): 5.85 µM
TGI (NCI-H226 lung): 13.4 µM
GI50 (U251 CNS): 3.55 µM
TGI (U251 CNS): 7.63 µM
GI50 (IGROV1 ovarian): 5.67 µM
TGI (IGROV1 ovarian): 26.7 µM
GI50 (HCT-116 colon): 1.68 µM
TGI (HCT-116 colon): 6.03 µM
GI50 (SNB-19 CNS): 5.25 µM
TGI (SNB-19 CNS): 10.2 µM
GI50 (ACHN renal): 4.31 µM
TGI (ACHN renal): 8.65 µM
GI50 (MOLT-4 leukemia): 1.31 µM
TGI (MOLT-4 leukemia): 14.4 µM
GI50 (SK-MEL-2 melanoma): 5.33 µM
TGI (SK-MEL-2 melanoma): 15.1 µM
